Reference: US20200093807A1, “NEW USE OF RIFAMYCIN-NITROIMIDAZOLE CONJUGATE MOLECULE” (TenNor Therapeutics Limited, priority 2017, published 2020)
Converted amounts (≈) assume the structure as drawn.

How the values were obtained:
[1] = tested on: Actinomyces naeslundii ATCC 12104; assay: MIC, anaerobic agar dilution (CLSI); type: cell-based; settings: ATCC12104, 35° C., 42-48 hours
[2] = tested on: Anaerococcus (Anaerococcus(prevotii)) ATCC 9321; assay: MIC, anaerobic agar dilution (CLSI); type: cell-based; settings: 35° C., 42-48 hours
Atopobium vaginae BAA-55 = assay: MIC, anaerobic agar dilution (CLSI); type: cell-based; settings: Fannyhessea vaginae, BAA55
[3] = tested on: Bacteroides fragilis (QC) ATCC 25285; assay: MIC, anaerobic agar dilution (CLSI); type: cell-based; settings: ATCC25285, 35° C., 42-48 hours
[4] = tested on: Bacteroides fragilis (MET^R) MMX 3387; assay: MIC, anaerobic agar dilution (CLSI); type: cell-based; settings: Bacteroides fragilis
[5] = tested on: Bacteroides thetaiotaomicron (MET^R) MMX 3409; assay: microbe, parasite or virus in culture; type: cell-based; settings: Bacteroides thetaiotaomicron
[6] = tested on: Bacteroides gracilis ATCC 33236; assay: MIC, anaerobic agar dilution (CLSI); type: cell-based; settings: Campylobacter gracilis, ATCC33236
[7] = tested on: Bacteroides uniformis MMX 1277; assay: MIC, anaerobic agar dilution (CLSI); type: cell-based; settings: Bacteroides uniformis, MMX1277
[8] = tested on: Bacteroides vulgatus MMX 8348; assay: MIC, anaerobic agar dilution (CLSI); type: cell-based; settings: Phocaeicola vulgatus, MMX8348, 35° C., 42-48 hours
[9] = tested on: Bacteroides vulgatus (MET^R) MMX 3490; assay: MIC, anaerobic agar dilution (CLSI); type: cell-based; settings: Phocaeicola vulgatus
[10] = tested on: Bacteroides ovatus (MET^R) MMX 3504; assay: MIC, anaerobic agar dilution (CLSI); type: cell-based; settings: 35° C., 42-48 hours
[11] = tested on: Bifidobacterium (breve) ATCC 15698; assay: MIC, anaerobic agar dilution (CLSI); type: cell-based; settings: ATCC15698, 35° C., 42-48 hours
[12] = tested on: Bifidobacterium longum ATCC 15707; assay: MIC, anaerobic agar dilution (CLSI); type: cell-based; settings: ATCC15707, 35° C., 42-48 hours
[13] = tested on: Clostridium sporogenes ATCC 19404; assay: MIC, anaerobic agar dilution (CLSI); type: cell-based; settings: ATCC19404, 35° C., 42-48 hours
[14] = tested on: Clostridium perfringens (MET^R) MMX 3521; assay: microbe, parasite or virus in culture; type: cell-based
[15] = tested on: Eubacterium (rectale) ATCC 33656; assay: MIC, anaerobic agar dilution (CLSI); type: cell-based; settings: Agathobacter rectalis, ATCC33656, 35° C., 42-48 hours
[16] = tested on: Fusobacterium nucleatum ATCC 10953; assay: MIC, anaerobic agar dilution (CLSI); type: cell-based; settings: ATCC10953, 35° C., 42-48 hours
[17] = tested on: Fusobacterium nucleatum ATCC 25586; assay: MIC, anaerobic agar dilution (CLSI); type: cell-based; settings: ATCC25586, 35° C., 42-48 hours
[18] = tested on: Gardnerella vaginalis ATCC 14018; assay: MIC, anaerobic agar dilution (CLSI); type: cell-based; settings: ATCC14018, 35° C., 42-48 hours
[19] = tested on: Gardnerella vaginalis ATCC 49145; assay: MIC, anaerobic agar dilution (CLSI); type: cell-based; settings: ATCC49145, 35° C., 42-48 hours
[20] = tested on: Lactobacillus crispatus ATCC 33820; assay: MIC, anaerobic agar dilution (CLSI); type: cell-based; settings: Lactobacillus crispatus, ATCC33820
[21] = tested on: Lactobacillus gasseri ATCC 33323; assay: MIC, anaerobic agar dilution (CLSI); type: cell-based; settings: Lactobacillus gasseri, ATCC33323
[22] = tested on: Lactobacillus jensenii ATCC 25258; assay: MIC, anaerobic agar dilution (CLSI); type: cell-based; settings: Lactobacillus jensenii, ATCC25258
[23] = tested on: Mobiluncus (curtisii subsp. curtisii) ATCC 35241; assay: MIC, anaerobic agar dilution (CLSI); type: cell-based; settings: ATCC35241, 35° C., 42-48 hours
[24] = tested on: Mobiluncus (mulieris) ATCC 35243; assay: MIC, anaerobic agar dilution (CLSI); type: cell-based; settings: ATCC35243, 35° C., 42-48 hours
[25] = tested on: Peptococcus (niger) ATCC 27731; assay: MIC, anaerobic agar dilution (CLSI); type: cell-based; settings: ATCC27731, 35° C., 42-48 hours
[26] = tested on: Peptoniphilus asaccharolyticus ATCC 29743; assay: MIC, anaerobic agar dilution (CLSI); type: cell-based; settings: ATCC29743, 35° C., 42-48 hours
[27] = tested on: Peptostreptococcus (magnus) ATCC 14956; assay: MIC, anaerobic agar dilution (CLSI); type: cell-based; settings: Finegoldia magna, ATCC14956, 35° C., 42-48 hours
[28] = tested on: Peptostreptococcus anaerobius ATCC 27337; assay: MIC, anaerobic agar dilution (CLSI); type: cell-based; settings: ATCC27337, 35° C., 42-48 hours
[29] = tested on: Prevotella asaccharolytica (MET^R) MMX 3552; assay: MIC, anaerobic agar dilution (CLSI); type: cell-based; settings: 35° C., 42-48 hours
[30] = tested on: Prevotella bivia ATCC 29303; assay: MIC, anaerobic agar dilution (CLSI); type: cell-based; settings: ATCC29303, 35° C., 42-48 hours
[31] = tested on: Prevotella bivia MMX 3450; assay: MIC, anaerobic agar dilution (CLSI); type: cell-based; settings: MMX3450, 35° C., 42-48 hours
[32] = tested on: Prevotella bivia (MET^R) MMX 3454; assay: MIC, anaerobic agar dilution (CLSI); type: cell-based; settings: 35° C., 42-48 hours
[33] = tested on: Prevotella disiens MMX 3457; assay: MIC, anaerobic agar dilution (CLSI); type: cell-based; settings: MMX3457, 35° C., 42-48 hours
[34] = tested on: Prevotella disiens MMX 3446; assay: MIC, anaerobic agar dilution (CLSI); type: cell-based; settings: MMX3446, 35° C., 42-48 hours
[35] = tested on: Prevotella intermedia ATCC 25611; assay: MIC, anaerobic agar dilution (CLSI); type: cell-based; settings: ATCC25611, 35° C., 42-48 hours
[36] = tested on: Treponema denticola ATCC 35405; assay: MIC, anaerobic agar dilution (CLSI); type: cell-based; settings: ATCC35405, 35° C., 42-48 hours
[37] = tested on: Veionella parvula ATCC 17745; assay: MIC, anaerobic agar dilution (CLSI); type: cell-based; settings: 35° C., 42-48 hours
Gardnerella = assay: MIC, agar dilution, Gardnerella; type: cell-based; settings: Gardnerella as major BV bacteria
[38] = tested on: Bacteroides fragilis (QC) ATCC 25285; settings: range printed in parentheses; cited from earlier work
Bacterial Vaginosis (BV) = settings: within 3 months; cited from earlier work

Q: Which results are given for `Cc1ncc([N+](=O)[O-])n1CCO` [Metronidazole]?
A: MIC [1]: 256 mg/L (≈ 1500 µM); MIC [2]: 2 mg/L (≈ 11.7 µM); MIC (Atopobium vaginae BAA-55): 128 mg/L (≈ 748 µM); MIC [3]: 1 mg/L (≈ 5.84 µM); MIC [4]: > 256 mg/L; MIC [5]: 2 mg/L (≈ 11.7 µM); MIC [6]: > 256 mg/L; MIC [7]: > 256 mg/L; MIC [8]: 1 mg/L (≈ 5.84 µM); MIC [9]: 128 mg/L (≈ 748 µM); MIC [10]: 2 mg/L (≈ 11.7 µM); MIC [11]: 8 mg/L (≈ 46.7 µM); MIC [12]: 8 mg/L (≈ 46.7 µM); MIC [13]: 0.06 mg/L (≈ 0.351 µM); MIC [14]: > 256 mg/L; MIC [15]: 0.5 mg/L (≈ 2.92 µM); MIC [16]: 0.06 mg/L (≈ 0.351 µM); MIC [17]: 2 mg/L (≈ 11.7 µM); MIC [18]: 4 mg/L (≈ 23.4 µM); MIC [19]: 4 mg/L (≈ 23.4 µM); MIC [20]: > 256 mg/L; MIC [21]: > 256 mg/L; MIC [22]: > 256 mg/L; MIC [23]: 2 mg/L (≈ 11.7 µM); MIC [24]: 0.5 mg/L (≈ 2.92 µM); MIC [25]: 0.5 mg/L (≈ 2.92 µM); MIC [26]: 0.5 mg/L (≈ 2.92 µM); MIC [27]: 1 mg/L (≈ 5.84 µM); MIC [28]: 0.25 mg/L (≈ 1.46 µM); MIC [29]: 1 mg/L (≈ 5.84 µM); MIC [30]: 1 mg/L (≈ 5.84 µM); MIC [31]: 1 mg/L (≈ 5.84 µM); MIC [32]: 0.5 mg/L (≈ 2.92 µM); MIC [33]: 0.5 mg/L (≈ 2.92 µM); MIC [34]: 0.5 mg/L (≈ 2.92 µM); MIC [35]: 1 mg/L (≈ 5.84 µM); MIC [36]: 0.5 mg/L (≈ 2.92 µM); MIC [37]: 2 mg/L (≈ 11.7 µM); MIC (Gardnerella): 4 mg/L (≈ 23.4 µM); MIC range in parentheses (QC strain reference range) [38]: 0.25 to 1 mg/L; recurrence rate (Bacterial Vaginosis (BV)): up to 58%
